Test results published in patent US20230301300A1, “HERBICIDAL COMPOSITIONS” (SYNGENTA CROP PROTECTION AG, priority 2020, published 2023).

Columns and labels:
Assay in all cases: B2 Post-Emergence Efficacy - Test 2
Type in all cases: in vivo
[1] = test system: Brachiaria plantaginea (BRAPL); conditions: 15 days after application, 0=no damage, 100=total kill
Outline: (§1)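 Visual phytotoxicity on a 0–100 scale, where 100 means total kill, was recorded 15 days following a single post-emergence spray. The spray was an aqueous dilution of active ingredient in IF50 with 0.2% v/v Genapol X080, applied to 12-day-old plants.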

[2] = test system: Lolium perenne (LOLPE); conditions: 15 days after application, 0-100 scale
Outline: as §1

[3] = test system: Sida spinosa (SIDSP); conditions: 15 days after application, 0-100 scale
Outline: as §1

[4] = test system: Abutilon theophrasti (ABUTH); conditions: 15 days after application, 0-100 scale
Outline: as §1

[5] = test system: Poa annua (POAAN); conditions: 15 days after application, 0-100 scale
Outline: as §1

[6] = test system: Bromus tectorum (BROTE); conditions: 15 days after application, 0-100 scale
Outline: as §1

[7] = test system: Digitaria sanguinalis (DIGSA); conditions: 15 days after application, 0=no damage, 100=total kill
Outline: as §1

[8] = test system: Ipomoea hederacea (IPOHE); conditions: 15 days after application, 0-100 scale
Outline: as §1

[9] = test system: Amaranthus retroflexus (AMARE); conditions: 15 days after application, 0-100 scale
Outline: as §1

[10] = test system: Sinapis arvensis (SINAR); conditions: 15 days after application, 0-100 scale
Outline: as §1

[11] = test system: Triticum aestivum (TRZAW); conditions: 15 days after application, 0-100 scale
Outline: as §1

[12] = test system: Xanthium strumarium (XANST); conditions: 15 days after application, 0-100 scale
Outline: as §1

[13] = test system: Sorghum bicolour (SORVU); conditions: 15 days after application, 0=no damage, 100=total kill
Outline: as §1

[14] = test system: Kochia scoparia (KSHSC); conditions: 15 days after application, 0-100 scale
Outline: as §1

[15] = test system: Beta vulgaris (BEAVA); conditions: 15 days after application, 0-100 scale
Outline: as §1

[16] = test system: Brassica napus (BRSNN); conditions: 15 days after application, 0-100 scale
Outline: as §1

[17] = test system: Avena fatua (AVEFA); conditions: 15 days after application, 0-100 scale
Outline: as §1

[18] = test system: Glycine max (GLXMA); conditions: 15 days after application; for Herbicidal activity GLXMA: 0-100 scale; for Herbicidal activity on a 0-100 scale, GLXMA: 0=no damage, 100=total kill
Outline: as §1

Compound: Cc1nn(C)c(=O)c(-c2c(F)ccc(Cl)c2CCc2ccc(C(F)(F)F)nc2)c1O [Compound 1.042, 4-[3-chloro-6-fluoro-2-[2-[6-(trifluoromethyl)-3-pyridyl]ethyl]phenyl]-5-hydroxy-2,6-dimethyl-pyridazin-3-one]
- Herbicidal activity on a 0-100 scale, BRAPL ([1]; 15 g/Ha): 80
- Herbicidal activity on a 0-100 scale, BRAPL ([1]; 30 g/Ha): 80
- Herbicidal activity on a 0-100 scale, BRAPL ([1]; 60 g/Ha): 90
- Herbicidal activity on a 0-100 scale, BRAPL ([1]; 125 g/Ha): 90
- Herbicidal activity on a 0-100 scale, BRAPL ([1]; 250 g/Ha): 90
- Herbicidal activity on a 0-100 scale, BRAPL ([1]; 500 g/Ha): 90
- Herbicidal activity LOLPE ([2]; 15 g/Ha): 60
- Herbicidal activity LOLPE ([2]; 30 g/Ha): 70
- Herbicidal activity LOLPE ([2]; 60 g/Ha): 70
- Herbicidal activity LOLPE ([2]; 125 g/Ha): 90
- Herbicidal activity LOLPE ([2]; 250 g/Ha): 90
- Herbicidal activity LOLPE ([2]; 500 g/Ha): 90
- Herbicidal activity SIDSP ([3]; 15 g/Ha): 90
- Herbicidal activity SIDSP ([3]; 30 g/Ha): 90
- Herbicidal activity SIDSP ([3]; 60 g/Ha): 100
- Herbicidal activity SIDSP ([3]; 250 g/Ha): 100
- Herbicidal activity SIDSP ([3]; 500 g/Ha): 100
- Herbicidal activity ABUTH ([4]; 15 g/Ha): 80
- Herbicidal activity ABUTH ([4]; 30 g/Ha): 90
- Herbicidal activity ABUTH ([4]; 60 g/Ha): 100
- Herbicidal activity ABUTH ([4]; 125 g/Ha): 100
- Herbicidal activity ABUTH ([4]; 250 g/Ha): 100
- Herbicidal activity ABUTH ([4]; 500 g/Ha): 100
- Herbicidal activity POAAN ([5]; 15 g/Ha): 20
- Herbicidal activity POAAN ([5]; 30 g/Ha): 70
- Herbicidal activity POAAN ([5]; 60 g/Ha): 80
- Herbicidal activity POAAN ([5]; 125 g/Ha): 90
- Herbicidal activity POAAN ([5]; 250 g/Ha): 90
- Herbicidal activity POAAN ([5]; 500 g/Ha): 90
- Herbicidal activity BROTE ([6]; 15 g/Ha): 20
- Herbicidal activity BROTE ([6]; 30 g/Ha): 30
- Herbicidal activity BROTE ([6]; 60 g/Ha): 70
- Herbicidal activity BROTE ([6]; 125 g/Ha): 80
- Herbicidal activity BROTE ([6]; 250 g/Ha): 80
- Herbicidal activity BROTE ([6]; 500 g/Ha): 90
- Herbicidal activity on a 0-100 scale, DIGSA ([7]; 15 g/Ha): 0
- Herbicidal activity on a 0-100 scale, DIGSA ([7]; 30 g/Ha): 60
- Herbicidal activity on a 0-100 scale, DIGSA ([7]; 60 g/Ha): 70
- Herbicidal activity on a 0-100 scale, DIGSA ([7]; 125 g/Ha): 70
- Herbicidal activity on a 0-100 scale, DIGSA ([7]; 250 g/Ha): 80
- Herbicidal activity on a 0-100 scale, DIGSA ([7]; 500 g/Ha): 90
- Herbicidal activity IPOHE ([8]; 15 g/Ha): 100
- Herbicidal activity IPOHE ([8]; 30 g/Ha): 100
- Herbicidal activity IPOHE ([8]; 60 g/Ha): 100
- Herbicidal activity IPOHE ([8]; 125 g/Ha): 100
- Herbicidal activity IPOHE ([8]; 250 g/Ha): 100
- Herbicidal activity IPOHE ([8]; 500 g/Ha): 100
- Herbicidal activity AMARE ([9]; 30 g/Ha): 100
- Herbicidal activity AMARE ([9]; 60 g/Ha): 100
- Herbicidal activity AMARE ([9]; 125 g/Ha): 100
- Herbicidal activity AMARE ([9]; 250 g/Ha): 100
- Herbicidal activity AMARE ([9]; 500 g/Ha): 100
- Herbicidal activity SINAR ([10]; 15 g/Ha): 80
- Herbicidal activity SINAR ([10]; 30 g/Ha): 90
- Herbicidal activity SINAR ([10]; 60 g/Ha): 90
- Herbicidal activity SINAR ([10]; 125 g/Ha): 90
- Herbicidal activity SINAR ([10]; 250 g/Ha): 90
- Herbicidal activity SINAR ([10]; 500 g/Ha): 90
- Herbicidal activity TRZAW ([11]; 15 g/Ha): 20
- Herbicidal activity TRZAW ([11]; 30 g/Ha): 30
- Herbicidal activity TRZAW ([11]; 60 g/Ha): 60
- Herbicidal activity TRZAW ([11]; 125 g/Ha): 70
- Herbicidal activity TRZAW ([11]; 250 g/Ha): 80
- Herbicidal activity TRZAW ([11]; 500 g/Ha): 80
- Herbicidal activity XANST ([12]; 15 g/Ha): 80
- Herbicidal activity XANST ([12]; 125 g/Ha): 90
- Herbicidal activity XANST ([12]; 250 g/Ha): 100
- Herbicidal activity XANST ([12]; 500 g/Ha): 100
- Herbicidal activity on a 0-100 scale, SORVU ([13]; 15 g/Ha): 0
- Herbicidal activity on a 0-100 scale, SORVU ([13]; 30 g/Ha): 70
- Herbicidal activity on a 0-100 scale, SORVU ([13]; 60 g/Ha): 80
- Herbicidal activity on a 0-100 scale, SORVU ([13]; 125 g/Ha): 90
- Herbicidal activity on a 0-100 scale, SORVU ([13]; 250 g/Ha): 90
- Herbicidal activity on a 0-100 scale, SORVU ([13]; 500 g/Ha): 100
- Herbicidal activity KCHSC ([14]; 15 g/Ha): 0
- Herbicidal activity KCHSC ([14]; 30 g/Ha): 10
- Herbicidal activity KCHSC ([14]; 60 g/Ha): 10
- Herbicidal activity KCHSC ([14]; 125 g/Ha): 20
- Herbicidal activity KCHSC ([14]; 250 g/Ha): 30
- Herbicidal activity KCHSC ([14]; 500 g/Ha): 60
- Herbicidal activity BEAVA ([15]; 15 g/Ha): 80
- Herbicidal activity BEAVA ([15]; 30 g/Ha): 70
- Herbicidal activity BEAVA ([15]; 60 g/Ha): 80
- Herbicidal activity BEAVA ([15]; 125 g/Ha): 90
- Herbicidal activity BEAVA ([15]; 250 g/Ha): 90
- Herbicidal activity BEAVA ([15]; 500 g/Ha): 90
- Herbicidal activity BRSNN ([16]; 15 g/Ha): 90
- Herbicidal activity BRSNN ([16]; 30 g/Ha): 90
- Herbicidal activity BRSNN ([16]; 60 g/Ha): 90
- Herbicidal activity BRSNN ([16]; 125 g/Ha): 90
- Herbicidal activity BRSNN ([16]; 250 g/Ha): 90
- Herbicidal activity BRSNN ([16]; 500 g/Ha): 90
- Herbicidal activity AVEFA ([17]; 15 g/Ha): 30
- Herbicidal activity AVEFA ([17]; 30 g/Ha): 60
- Herbicidal activity AVEFA ([17]; 60 g/Ha): 80
- Herbicidal activity AVEFA ([17]; 125 g/Ha): 80
- Herbicidal activity AVEFA ([17]; 250 g/Ha): 90
- Herbicidal activity AVEFA ([17]; 500 g/Ha): 90
- Herbicidal activity GLXMA ([18]; 15 g/Ha): 60
- Herbicidal activity on a 0-100 scale, GLXMA ([18]; 15 g/Ha): 60
- Herbicidal activity GLXMA ([18]; 30 g/Ha): 80
- Herbicidal activity on a 0-100 scale, GLXMA ([18]; 30 g/Ha): 80
- Herbicidal activity GLXMA ([18]; 60 g/Ha): 90
- Herbicidal activity on a 0-100 scale, GLXMA ([18]; 60 g/Ha): 90
- Herbicidal activity GLXMA ([18]; 125 g/Ha): 90
- Herbicidal activity on a 0-100 scale, GLXMA ([18]; 125 g/Ha): 90
- Herbicidal activity GLXMA ([18]; 250 g/Ha): 100
- Herbicidal activity on a 0-100 scale, GLXMA ([18]; 250 g/Ha): 100
- Herbicidal activity GLXMA ([18]; 500 g/Ha): 100
- Herbicidal activity on a 0-100 scale, GLXMA ([18]; 500 g/Ha): 100
